Experimental data taken from US20240246940A1, “HETEROARYL DERIVATIVE COMPOUND AND USE THEREOF” (VORONOI INC., priority 2021, published 2024).
Like-named read-outs stand apart in the source and are kept apart here.

Experiments:
Format in all cases: cell-based
[1] = system: HaCaT cells (EGFR expressing cell line); assay: HaCaT cell proliferation inhibitory activity (CellTiter-Glo, 72 hours)
In short: (§1)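 Cells seeded 24 h (HaCaT 3000/well, N-87 5000/well) or 48 h (SK-BR-3, BT-474 5000/well) before 11-point dosing: 0.2 nM–10 μM (SK-BR-3, BT-474), […]–5 μM (N-87), 0.8 nM–45 μM (HaCaT). CellTiter-Glo luminescence read; GI50 from growth relative to control, triplicate.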

[2] = system: BT-474 cells (HER2 overexpressing cell line); assay: BT-474 cell proliferation inhibitory activity (CellTiter-Glo, 120 hours)
Experimental: To evaluate the cell proliferation inhibitory activity of the compound according to the present invention on HER2 and EGFR kinases, the following method was performed using HER2 overexpressing cell lines (SK-BR-3, BT-474, and N-87) and EGFR expressing cell line (HaCaT).
McCOY'S 5A supplemented with 10% FBS was used for SK-BR-3 cells, RPMI-1640 medium supplemented with 20% FBS was used for BT-474 cancer cells, and RPMI-1640 medium supplemented with 10% FBS was used for N-87 cancer cells. DMEM supplemented with 10% FBS was used for HaCaT cells.
For SK-BR-3 cells, 5000 cells were aliquoted into each well of a white clear bottom 96 well plate (Corning) 48 hours before treatment with the compounds of Examples. For BT-474 cells, 5000 cells were aliquoted into each well of a white clear bottom 96 well plate (Corning) 48 hours before treatment with the compounds of Examples. For N-87 cells, 5000 cells were aliquoted into each well of a white clear bottom 96 well plate (Corning) 24 hours before treatment with the compounds of Examples. For HaCaT cells, 3000 cells were aliquoted into each well of a white clear bottom 96 well plate (Corning) 24 hours before treatment with the compounds of Examples. For SK-BR-3 cells and BT-474 cells, the compounds of Examples were diluted in dimethyl sulfoxide (three-fold dilution, a total of 11 concentrations) and injected each in an amount of 1 μl to a final concentration of 0.2 nM to 10 μM. For N-87 cells, the compounds of Examples were diluted in dimethyl sulfoxide (five-fold dilution, a total of 11 concentrations) and injected each in an amount of 0.5 μl to a final concentration of […] to 5 μM. For HaCaT cells, the compounds of Examples were diluted in dimethyl sulfoxide (three-fold dilution, a total of 11 concentrations) and injected each in an amount of 0.5 μl to a final concentration of 0.8 nM to 45 μM. For the measurement of living cells, the cells were stored at room temperature for 10 minutes using CellTiter-Glo cell viability reagent (Promega) after a certain period of time (SK-BR-3: 120 hours, BT-474: 120 hours, N-87: 72 hours, and HaCaT: 72 hours) post treatment with the compounds of Examples, and the luminescence intensity thereof was measured using a reader (SynergyNeo, Biotek). Each test was repeated three times.
The result values were calculated as a cell growth rate (%) compared to those of the control group. A graph was created using the GraphPad Prism version 5.0 program, and GI50 values were calculated.

[3] = system: SK-BR-3 cells (HER2 overexpressing cell line); assay: SK-BR-3 cell proliferation inhibitory activity (CellTiter-Glo, 120 hours); details: Homo sapiens
In short: as §1

C=CC(=O)N1CCC(F)(F)C(Oc2cc(OC)cc3ncnc(Nc4cc(-c5ccco5)ccc4OC)c23)C1 (stereo not drawn) [Example 53, 1-(4,4-difluoro-3-((4-((5-(furan-2-yl)-2-methoxyphenyl)amino)-7-methoxy-quinazolin-5-yl)oxy)piperidin-1-yl)prop-2-en-1-one]
GI50 ([1]; Homo sapiens): ≤ 150 nM | GI50 ([2]; Homo sapiens): ≤ 150 nM

C=CC(=O)N1CCC(Oc2cc3c(Nc4cc(-c5ccc(F)o5)ccc4OC)ncnc3cc2OC)CC1 [Example 88, 1-(4-((4-((5-(5-fluorofuran-2-yl)-2-methoxyphenyl)amino)-7-methoxy-quinazolin-6-yl)oxy)piperidin-1-yl)prop-2-en-1-one]
GI50 ([1]; Homo sapiens): ≤ 150 nM | GI50 ([2]; Homo sapiens): ≤ 150 nM

C=CC(=O)N1CCC(Oc2cc(OC)cc3ncnc(Nc4cc(-c5ccco5)ccc4OC)c23)C(F)(F)C1 (stereo not drawn) [Example 99, 1-(3,3-difluoro-4-((4-((5-(furan-2-yl)-2-methoxyphenyl)amino)-7-methoxy-quinazolin-5-yl)oxy)piperidin-1-yl)prop-2-en-1-one]
GI50 [1]: ≤ 150 nM | GI50 [2]: ≤ 150 nM

C=CC(=O)N1CCC(F)(F)C(Oc2cc(OC)cc3ncnc(Nc4cc(-c5ccc(F)cc5F)ccc4OC)c23)C1 (stereo not drawn) [Example 100, 1-(3-((4-((2′,4′-difluoro-4-methoxy-[1,1′-biphenyl]-3-yl)amino)-7-methoxy-quinazolin-5-yl)oxy)-4,4-difluoro-piperidin-1-yl)prop-2-en-1-one]
GI50 [1]: ≤ 150 nM | GI50 [2]: ≤ 150 nM

C=CC(=O)N1CC[C@H](Oc2cc3c(Nc4cc(-c5ccc(F)cc5F)ccc4OC)ncnc3cc2OC)[C@@H](F)C1 [Example 152, 1-((3S,4S)-4-((4-((2′,4′-difluoro-4-methoxy-[1,1′-biphenyl]-3-yl)amino)-7-methoxy-quinazolin-6-yl)oxy)3-fluoropiperidin-1-yl)prop-2-en-1-one]
GI50 ([1]; Homo sapiens): 150 to 1000 nM | GI50 ([2]; Homo sapiens): 150 to 1000 nM

C=CC(=O)N1CCC(Oc2cc3c(Nc4cc(-c5ccc6c(c5)OCO6)ccc4OC)ncnc3cc2OC)CC1 [Example 153, 1-(4-((4-((5-(benzo[d][1,3]dioxol-5-yl)-2-methoxyphenyl)amino)-7-methoxy-quinazolin-6-yl)oxy)piperidin-1-yl)prop-2-en-1-one]
GI50 ([1]; Homo sapiens): > 1000 nM | GI50 ([2]; Homo sapiens): 150 to 1000 nM

C=CC(=O)N1[C@@H]2CC[C@H]1C[C@@H](Oc1cc3c(Nc4cc(-c5ccco5)ccc4OC)ncnc3cc1OC)C2 [Example 167, 1-((1R,3r,5S)-3-((4-((5-(furan-2-yl)-2-methoxyphenyl)amino)-7-methoxy-quinazolin-6-yl)oxy)-8-azabicyclo [3.2.1]octan-8-yl)prop-2-en-1-one]
GI50 ([1]; Homo sapiens): ≤ 150 nM | GI50 ([2]; Homo sapiens): ≤ 150 nM

C=CC(=O)N1CCC(Nc2cc3c(Nc4cc(-c5ccco5)ccc4OC)ncnc3cc2OCCN2CCOCC2)CC1 [Example 272, 1-(4-((4-((5-(furan-2-yl)-2-methoxyphenyl)amino)-7-(2-morpholinoethoxy)quinazolin-6-yl)amino)piperidin-1-yl)prop-2-en-1-one]
GI50 ([1]; Homo sapiens): ≤ 150 nM | GI50 [3]: ≤ 150 nM

C=CC(=O)Nc1cc2c(Nc3cc(-c4ccco4)ccc3OC)ncnc2cc1OCCCOC [Example 273, N-(4-((5-(furan-2-yl)-2-methoxyphenyl)amino)-7-(3-methoxypropoxy)quinazolin-6-yl)acrylamide]
GI50 ([1]; Homo sapiens): ≤ 150 nM | GI50 [3]: ≤ 150 nM

C=CC(=O)N1CCC(Nc2cc3c(Nc4cc(-c5ccco5)ccc4OC)ncnc3cc2OCCCOC)CC1 [Example 274, 1-(4-((4-((5-(furan-2-yl)-2-methoxyphenyl)amino)-7-(3-methoxypropoxy)quinazolin-6-yl)amino)piperidin-1-yl)prop-2-en-1-one]
GI50 ([1]; Homo sapiens): ≤ 150 nM | GI50 [3]: ≤ 150 nM

C=CC(=O)Nc1cc2c(Nc3cc(-c4ccco4)ccc3OC)ncnc2cc1OCCOC [Example 275, N-(4-((5-(furan-2-yl)-2-methoxyphenyl)amino)-7-(2-methoxyethoxy)quinazolin-6-yl)acrylamide]
GI50 ([1]; Homo sapiens): ≤ 150 nM | GI50 [3]: ≤ 150 nM

C=CC(=O)Nc1cc2c(Nc3cc(-c4ccco4)ccc3OC)ncnc2cc1OCCCN1CCOCC1 [Example 277, N-(4-((5-(furan-2-yl)-2-methoxyphenyl)amino)-7-(3-morpholinopropoxy)quinazolin-6-yl)acrylamide]
GI50 ([1]; Homo sapiens): ≤ 150 nM | GI50 [3]: ≤ 150 nM

C=CC(=O)N1CCC(Nc2cc3c(Nc4cc(-c5ccco5)ccc4OC)ncnc3cc2O[C@H]2CCOC2)CC1 [Example 279, (S)-1-(4-((4-((5-(furan-2-yl)-2-methoxyphenyl)amino)-7-((tetrahydrofuran-3-yl)oxy)quinazolin-6-yl)amino)piperidin-1-yl)prop-2-en-1-one]
GI50 ([1]; Homo sapiens): ≤ 150 nM | GI50 [3]: ≤ 150 nM

C=CC(=O)N1CCC(Nc2cc3c(Nc4cc(-c5ccco5)ccc4OC)ncnc3cc2O[C@@H]2CCOC2)CC1 [Example 280, (R)-1-(4-((4-((5-(furan-2-yl)-2-methoxyphenyl)amino)-7-((tetrahydrofuran-3-yl)oxy)quinazolin-6-yl)amino)piperidin-1-yl)prop-2-en-1-one]
GI50 ([1]; Homo sapiens): ≤ 150 nM | GI50 [3]: ≤ 150 nM

C=CC(=O)N1CCC(Nc2cc3c(Nc4cc(-c5ccc(F)cc5F)ccc4OC)ncnc3cc2O[C@@H]2CCOC2)CC1 [Example 282, (R)-1-(4-((4-((2′,4′-difluoro-4-methoxy-[1,1′-biphenyl]-3-yl)amino)-7-((tetrahydrofuran-3-yl)oxy)quinazolin-6-yl)amino)piperidin-1-yl)prop-2-en-1-one]
GI50 ([1]; Homo sapiens): ≤ 150 nM | GI50 [3]: ≤ 150 nM

C=CC(=O)Nc1cc2c(Nc3cc(-c4ccn5ncnc5c4)ccc3OC)ncnc2cc1OC [Example 287, N-(4-((5-([1,2,4]triazolo[1,5-a]pyridin-7-yl)-2-methoxyphenyl)amino)-7-methoxyquinazolin-6-yl)acrylamide]
GI50 ([1]; Homo sapiens): > 1000 nM | GI50 [3]: ≤ 150 nM

C=CC(=O)Nc1cc2c(Nc3cc(-c4ccc5occc5c4)ccc3OC)ncnc2cc1OC [Example 288, N-(4-((5-(benzofuran-5-yl)-2-methoxyphenyl)amino)-7-methoxyquinazolin-6-yl)acrylamide]
GI50 ([1]; Homo sapiens): > 1000 nM | GI50 [3]: 150 to 1000 nM

C=CC(=O)Nc1cc2c(Nc3cc(-c4ccco4)ccc3OC)ncnc2cc1OC [Example 289, N-(4-((5-(furan-2-yl)-2-methoxyphenyl)amino)-7-methoxyquinazolin-6-yl)acrylamide]
GI50 ([1]; Homo sapiens): ≤ 150 nM | GI50 [3]: ≤ 150 nM

C=CC(=O)Nc1cc2c(Nc3cc(-c4ccoc4C)ccc3OC)ncnc2cc1OC [Example 290, N-(7-methoxy-4-((2-methoxy-5-(2-methylfuran-3-yl)phenyl)amino)quinazolin-6-yl)acrylamide]
GI50 ([1]; Homo sapiens): ≤ 150 nM | GI50 [3]: 150 to 1000 nM

C=CC(=O)Nc1cc2c(Nc3cc(-c4ccco4)ccc3OC)c(C#N)cnc2cc1OCC [Example 291, N-(3-cyano-7-ethoxy-4-((5-(furan-2-yl)-2-methoxyphenyl)amino)quinolin-6-yl)acrylamide]
GI50 ([1]; Homo sapiens): ≤ 150 nM | GI50 [3]: > 1000 nM

C=CC(=O)N1CC2(C1)CN(c1cc3c(Nc4cc(-c5ccco5)ccc4OC)ncnc3cc1OC)C(=O)O2 [Example 330, 2-acryloyl-7-(4-((5-(furan-2-yl)-2-methoxyphenyl)amino)-7-methoxyquinazolin-6-yl)-5-oxa-2,7-diazaspiro[3.4]octan-6-one]
GI50 ([1]; Homo sapiens): 150 to 1000 nM | GI50 [3]: 150 to 1000 nM
